Source: article PMC8956739, “A synthetic lipopeptide targeting top-priority multidrug-resistant Gram-negative pathogens” (Nature Communications, 2022)
Values joined by “and” are separate entries in the source; they are usually repeats but may differ in a detail not shown here. Equal values may be shown once. Residues, ends and D or L forms follow the SMILES beside them.

What was measured:
[1] = tested on: Swiss mice, kidney; test: Nephrotoxicity in mice (kidney histopathology); type: in vivo, mouse
Summary of the method: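 Female Swiss mice (7-week-old, 22–28 g) received lipopeptides in saline either s.c. at 12 mg/kg ×6 every 2 h (total 72 mg/kg, n = 3) or i.p. at 20 or 25 mg/kg ×6 every 2 h (total 120 mg/kg, n = 6; 150 mg/kg, n = 3). Right kidney collected 20 h after last dose, fixed in 10% buffered formalin (pH 7.4), histology scored blinded.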

[2] = tested on: A. baumannii AB5075; test: Transcriptomic analysis (RNA-Seq) of bacteria; type: cell-based, Acinetobacter baumannii; conditions: for logFC (Differential gene expression for all genes), Geneid ABUW_RS00005 / logFC (Differential gene expression for all genes), Geneid ABUW_RS00020 / logFC (Fold change), gene ABUW_RS00010 / logFC (Fold change), gene ABUW_RS00030 / logFC (Fold change), gene ABUW_RS00035 / logFC (Fold change), gene recF (ABUW_RS00015) / 4h_1h logFC (Differential gene expression for all genes), Geneid ABUW_RS00005 / 4h_1h logFC (Differential gene expression for all genes), Geneid ABUW_RS00010 / 4h_1h logFC (Differential gene expression for all genes), Geneid ABUW_RS00015 / 4h_1h logFC (Differential gene expression for all genes), Geneid ABUW_RS00020: RNA-Seq A. baumannii AB5075; for log2FC, gene ABUW_RS01945 (acyl-CoA thioesterase II) / log2FC, gene ABUW_RS02545 (acyl-CoA thioesterase) / log2FC, gene ABUW_RS05045 (acyl-CoA thioesterase) / log2FC, gene ABUW_RS17575 (acyl-CoA thioesterase): pathway Fatty Acid and Lipid Degradation; for 4h_1h logFC (Differential gene expression for all genes), Geneid ABUW_RS00005 / 4h_1h logFC (Differential gene expression for all genes), Geneid ABUW_RS00010 / 4h_1h logFC (Differential gene expression for all genes), Geneid ABUW_RS00015 / 4h_1h logFC (Differential gene expression for all genes), Geneid ABUW_RS00020: 4h vs 1h
Protocol: Mid-log phase A. baumannii AB5075 (~10^8 CFU/mL) in CaMHB was treated with colistin (2 and 8 μg/mL), F287, F319 or F365 (equimolar concentration to colistin) for 1 and 4 h. Total RNA was extracted using TRIzol Reagent (Invitrogen, USA) and RNeasy Mini Kit (Qiagen, Germany). Quality check of RNA samples was conducted with NanoDrop (Thermo Fisher Scientific, USA) and Agilent 2100 Bioanalyzer (Agilent Technologies, USA) for sequencing (150 bp paired-end) at Genewiz (Shanghai, China). Raw reads were aligned to A. baumannii AB5075 genome (GCF_000963815, https://www.ncbi.nlm.nih.gov/assembly/GCF_000963815.1/) using subread-aligner (subread 2.0.1) and summarized by featureCounts (subread 2.0.1). Principal component analysis (PCA) was conducted with mixOmics 6.14.1 in R. Differentially expressed genes were determined using limma 3.46.0 with a combination of fold change ≥ 2 and false discovery rate (FDR, by Benjamini–Hochberg algorithm) adjusted P-value ≤ 0.05 (n = 3). Enrichment analysis of gene differential expression in AB5075 was conducted using BioCyc (A. baumannii AB5075, version 25.5). UpSetR 1.4.0, ComplexHeatmap 2.6.2 and circlize 0.4.13 were used for data visualization. Raw data were deposited in Short Reads Archive (SRA) database under accession numbers SRR15235669-SRR15235725.

[3] = tested on: P. aeruginosa ATCC 27853; test: Neutropenic mouse bloodstream infection model; type: in vivo; conditions: single IV dose 4 mg/kg
Summary of the method: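 Female Swiss mice made neutropenic with cyclophosphamide (150 mg/kg day −4, 100 mg/kg day −1), infected IV with 50 µL of 4 × 10^8 CFU/mL. Lipopeptide 4 mg/kg (free base) IV at 2 h post-inoculation, n = 3. Efficacy = Δlog10 CFU/mL blood versus saline at 4 h post-dose.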

Q: Which results are given for `CCCCCCCC(=O)N[C@@H](CCN)C(=O)N[C@H](C(=O)N[C@@H](CN)C(=O)N[C@H]1CCNC(=O)[C@H]([C@@H](C)O)NC(=O)[C@H](CCN)NC(=O)[C@H](CCN)NC(=O)[C@H](CC)NC(=O)[C@@H](CC(C)C)NC(=O)[C@H](CCN)NC1=O)[C@@H](C)O` [Lipopeptide F287] (HELM PEPTIDE1{[CCCCCCCC(=O)[*:2]].[Dab].T.[NC[C@H](N[*:1])C(=O)[*:2]].[Dab].[Dab].[dL].[Abu].[Dab].[Dab].T}$PEPTIDE1,PEPTIDE1,5:R3-11:R2$$$V2.0)?
A: Kidney histopathology (SQS Score) ([1]; 72 mg/kg/d subcutaneously in six divided doses every 2 h, n = 3): 0 (SQS 0 = no significant change (overall score, <1)); Kidney histopathology, mice with the SQS score ([1]; mouse, in vivo): 3/3; Kidney histological damage, mice with the given grade ([1]; mouse, in vivo, ip, 120 mg/kg/day): 2/6; logFC (Differential gene expression for all genes), Geneid ABUW_RS00005 ([2]; H vs Cont, 1h): -0.2237; logFC (Differential gene expression for all genes), Geneid ABUW_RS00020 ([2]; H vs Cont, 1h): 0.4813; logFC (Fold change), gene ABUW_RS00010 ([2]; H vs Cont, 1h): 0.6329; logFC (Fold change), gene ABUW_RS00030 ([2]; H vs Cont, 1h): -0.7589; logFC (Fold change), gene ABUW_RS00035 ([2]; H vs Cont, 1h): 1.171; logFC (Fold change), gene recF (ABUW_RS00015) ([2]; H vs Cont, 1h): 0.0004857; log2FC, gene ABUW_RS01945 (acyl-CoA thioesterase II) ([2]; H vs Cont, 1h): 0.3471; log2FC, gene ABUW_RS02545 (acyl-CoA thioesterase) ([2]; H vs Cont, 1h): 1.413; log2FC, gene ABUW_RS05045 (acyl-CoA thioesterase) ([2]; H vs Cont, 1h): 0.6077; log2FC, gene ABUW_RS17575 (acyl-CoA thioesterase) ([2]; H vs Cont, 1h): -1.9504; logFC (Differential gene expression for all genes), Geneid ABUW_RS00005 ([2]; H vs Cont, 4h): -0.2595; logFC (Differential gene expression for all genes), Geneid ABUW_RS00020 ([2]; H vs Cont, 4h): 0.07692; logFC (Fold change), gene ABUW_RS00010 ([2]; H vs Cont, 4h): 1.124; logFC (Fold change), gene ABUW_RS00030 ([2]; H vs Cont, 4h): -1.151; logFC (Fold change), gene ABUW_RS00035 ([2]; H vs Cont, 4h): 1.24; logFC (Fold change), gene recF (ABUW_RS00015) ([2]; H vs Cont, 4h): -1.077; log2FC, gene ABUW_RS01945 (acyl-CoA thioesterase II) ([2]; H vs Cont, 4h): -0.6425; log2FC, gene ABUW_RS02545 (acyl-CoA thioesterase) ([2]; H vs Cont, 4h): 1.263; log2FC, gene ABUW_RS05045 (acyl-CoA thioesterase) ([2]; H vs Cont, 4h): 0.8039; log2FC, gene ABUW_RS17575 (acyl-CoA thioesterase) ([2]; H vs Cont, 4h): -1.276; 4h_1h logFC (Differential gene expression for all genes), Geneid ABUW_RS00005 ([2]; H): -0.6471; 4h_1h logFC (Differential gene expression for all genes), Geneid ABUW_RS00010 ([2]; H): 0.4305; 4h_1h logFC (Differential gene expression for all genes), Geneid ABUW_RS00015 ([2]; H): -1.349; 4h_1h logFC (Differential gene expression for all genes), Geneid ABUW_RS00020 ([2]; H): 0.3991; logFC (Differential gene expression for all genes), Geneid ABUW_RS00005 ([2]; L vs Cont, 1h): 0.09601; logFC (Differential gene expression for all genes), Geneid ABUW_RS00020 ([2]; L vs Cont, 1h): 0.1731; logFC (Fold change), gene ABUW_RS00010 ([2]; L vs Cont, 1h): 0.3235; logFC (Fold change), gene ABUW_RS00030 ([2]; L vs Cont, 1h): -0.01757; logFC (Fold change), gene ABUW_RS00035 ([2]; L vs Cont, 1h): 0.2853; logFC (Fold change), gene recF (ABUW_RS00015) ([2]; L vs Cont, 1h): 0.06622; log2FC, gene ABUW_RS01945 (acyl-CoA thioesterase II) ([2]; L vs Cont, 1h): 0.394; log2FC, gene ABUW_RS02545 (acyl-CoA thioesterase) ([2]; L vs Cont, 1h): 0.4759; log2FC, gene ABUW_RS05045 (acyl-CoA thioesterase) ([2]; L vs Cont, 1h): -0.04078; log2FC, gene ABUW_RS17575 (acyl-CoA thioesterase) ([2]; L vs Cont, 1h): 0.9551; logFC (Differential gene expression for all genes), Geneid ABUW_RS00005 ([2]; L vs Cont, 4h): 0.1326; logFC (Differential gene expression for all genes), Geneid ABUW_RS00020 ([2]; L vs Cont, 4h): -0.2281; logFC (Fold change), gene ABUW_RS00010 ([2]; L vs Cont, 4h): 0.09364; logFC (Fold change), gene ABUW_RS00030 ([2]; L vs Cont, 4h): 0.3636; logFC (Fold change), gene ABUW_RS00035 ([2]; L vs Cont, 4h): 0.2169; logFC (Fold change), gene recF (ABUW_RS00015) ([2]; L vs Cont, 4h): 0.1608; log2FC, gene ABUW_RS01945 (acyl-CoA thioesterase II) ([2]; L vs Cont, 4h): -0.1224; log2FC, gene ABUW_RS02545 (acyl-CoA thioesterase) ([2]; L vs Cont, 4h): -0.4528; log2FC, gene ABUW_RS05045 (acyl-CoA thioesterase) ([2]; L vs Cont, 4h): 0.3557; log2FC, gene ABUW_RS17575 (acyl-CoA thioesterase) ([2]; L vs Cont, 4h): -0.4747; 4h_1h logFC (Differential gene expression for all genes), Geneid ABUW_RS00005 ([2]; L): -0.01752; 4h_1h logFC (Differential gene expression for all genes), Geneid ABUW_RS00010 ([2]; L): -0.721; 4h_1h logFC (Differential gene expression for all genes), Geneid ABUW_RS00015 ([2]; L): 0.1845; 4h_1h logFC (Differential gene expression for all genes), Geneid ABUW_RS00020 ([2]; L): -0.0476; Log10 CFU/mL blood at 4 h, Mean ([3]; 4 h): 5.02 Log10 CFU/mL blood; Δlog10 CFU/mL blood (mean) ([3]; 4 h, treated minus control, mean of replicates, 4 mg/kg): −2.42 log10 CFU/mL blood; Log10 CFU/mL blood at 4 h, single mouse ([3]; 4 h, 4 mg/kg): 5.21 Log10 CFU/mL blood and 4.68 Log10 CFU/mL blood and 5.18 Log10 CFU/mL blood; Delta Log10 CFU/mL blood at 4 h, single mouse ([3]; treated mouse minus mean of vehicle mice, 4 mg/kg): -2.23 Log10 CFU/mL blood and -2.77 Log10 CFU/mL blood and -2.27 Log10 CFU/mL blood
